From patent publication US5481021A, “Phenyl amidines derivatives useful as platelet aggregation inhibitors” (G. D. Searle & Co., priority 1994, dated 1996) come the findings set out here.

The subject of test [1] is Platelet aggregation in dog PRP. Briefly: In-Vitro Platelet Aggregation in PRP (ADP induced). Format: cell-based. As to conditions: Canis lupus familiaris; for IC50: ADP 50 μm, 37° C.; for inhibition at 10 µM: ADP, test concentration 1 × 10^-5. As for the experimental part: In-Vitro Platelet Aggregation in PRP
(§1) Healthy male or female dogs were fasted for 8 hours prior to drawing blood; then 30 ml whole blood was collected using a butterfly needle and 30 cc plastic syringe with 3 ml of 0.129M buffered sodium citrate (3.8%). The syringe was rotated carefully as blood was drawn to mix the citrate. Platelet-rich plasma (PRP) was prepared by centrifugation at 975×g for 3.17 minutes at room temperature, allowing the centrifuge to coast to a stop without braking. The PRP was removed from the blood with a plastic pipette and placed in a plastic capped, 50 ml Corning conical sterile centrifuge tube which was held at room temperature. Platelet poor plasma (PPP) was prepared by centrifuging the remaining blood at 2000×g for 15 minutes at room temperature allowing the centrifuge to coast to a stop without braking. The PRP was adjusted with PPP to a count of 2-3×10^8 platelets per ml. 400 for 5-(p-cyanophenyl)pentanoic acid in Section C of Example 1.
as §1, with “400 μl of the PRP preparation and 50 μl of the compound to be tested or saline were preincubated” for “400”, “1 minute at 37° C.” for “5-(p-cyanophenyl)pentanoic acid”, “a BioData aggregometer (BioData, Horsham, Pa.). 50 μl” for “Section C”, “adenosine 5'diphosphate (ADP) (50 μm final concentration) was added to the cuvettes and the aggregation was monitored for 1 minute. All compounds are tested in duplicate. Results are calculated as follows:” for “Example 1.”
Percent of control=[(maximal OD minus initial OD of compound) divided by
(maximal OD minus initial OD of control saline)]×100. The %
inhibition=100-(percent of control).

Test [2] deals with ex vivo collagen induced platelet aggregation. Briefly: Inhibition of ex vivo collagen induced aggregation. Format: in vivo, dog (Beagle). As to conditions: dog. On the procedure: INHIBITION OF EX VIVO COLLAGEN INDUCED AGGREGATION BY COMPOUNDS OF THE INVENTION
PURPOSE--The purpose of this assay is to determine the effects of antiplatelet compounds on ex vivo collagen induced platelet aggregation when administered either intravenously or orally to dogs.
Pretreatment (control) blood samples are drawn from either conscious or anesthetized dogs (Beagles) and centrifuged to prepare platelet rich plasma (PRP). Aggregatory response to collagen is measured in an aggregometer and used as Control. Compounds are administered, either intragasterically (either by capsule or stomach tube or intravenously. Blood samples are drawn at predetermined intervals after compound administration, PRP prepared and aggregation to collagen determined. Compound inhibition of aggregation is determined by comparing the aggregation response after compound administration to the pretreatment response. The study is continued for a maximum of 24 hours or until the platelet aggregation returns to control levels. (If aggregation is still inhibited after 7 hours, a blood sample is drawn the following morning and tested.) Duration of activity is determined by the length of time platelet aggregation is inhibited after compound administration.

As to `COc1ccc(CCNC(=O)[C@H](CC(=O)O)NC(=O)CCCCc2ccc(C(=N)N)cc2)cc1` [3S [[5-[4-(aminoiminomethyl)phenyl]-1-oxopentyl]amino]-4-[[2-4-(methoxyphenyl)ethyl]amino]-4-oxobutanoic acid], in test [1], the IC50 amounted to 0.42 µM and at 10 µM the inhibition was 100%.

For the compound `N=C(N)c1ccc(CCCCC(=O)N[C@@H](CC(=O)O)C(=O)N(CCC(=O)O)CCc2ccccc2)cc1` [3S-[[5-[4-(Aminoiminomethyl)phenyl]-1-oxopentyl]amino]-4-[(2-carboxyethyl)(2-phenylethyl)amino]-4-oxobutanoic acid], in test [1], half-maximal inhibition (IC50) required 10 µM and the inhibition at 10 µM turned out to be 53%.

For `COc1ccc(CCN(CCC(=O)O)C(=O)[C@H](CC(=O)O)NC(=O)CCCCc2ccc(C(=N)N)cc2)cc1` [3S-[[5-[4-(aminoiminomethyl)phenyl]-1-oxopentyl)amino]-4-[(2-carboxyethyl)(2-(4-methoxyphenyl)ethyl]amino]-4-oxobutanoic acid], in test [1], the inhibition at 10 µM was found to be 66%.

On to `CC(C)CN(CCC(=O)O)C(=O)[C@H](CC(=O)O)NC(=O)CCCCc1ccc(C(=N)N)cc1` [3S-[[5-[4-(aminoiminomethyl)phenyl]-1-oxopentyl]amino]-4-[(2-carboxyethyl)(2-methylpropyl)amino]-4-oxobutanoic acid], for which the inhibition at 10 µM in test [1] was 14%.

With `N=C(N)c1ccc(CCCCC(=O)N[C@@H](CC(=O)O)C(=O)N(CCC(=O)O)Cc2ccccc2)cc1` [3S-[[5-[4-(aminoiminomethyl)phenyl]-1-oxopentyl]amino]-4-[(2-carboxyethyl)(phenylmethyl)amino]-4-oxobutanoic acid], in test [1], the IC50 is 4.3 µM and the inhibition at 10 µM came to 100%.

In the case of `CC(C)CNC(=O)[C@H](CC(=O)O)NC(=O)CCCCc1ccc(C(=N)N)cc1` [3S-[[5-[4-(aminoiminomethyl)phenyl]-1-oxopentyl]amino]-4-[(2-methylpropyl)amino]-4-oxobutanoic acid], in test [1], the IC50 amounted to 0.7 µM and the inhibition at 10 µM was 100%. In addition, the “Ex-vivo collagen induced aggregation, Max % Inhibition” value in test [2] (0.1 mg/kg, IV) came out at 100%.

In test [1], `N=C(N)c1ccc(CCCCC(=O)N[C@@H](CC(=O)O)C(=O)NCCc2c[nH]c3ccccc23)cc1` [3S-[[5-[4-(aminoiminomethyl)phenyl]-1-oxopentyl]amino]-4-[[2-(1H-indol-3-yl)ethyl]amino]-4-oxobutanoic acid] had an IC50 of 0.28 µM and an inhibition at 10 µM of 100%.

In test [1], `COC(=O)C[C@H](NC(=O)CCCCc1ccc(C(=N)N)cc1)C(=O)N[C@@H](Cc1ccccc1)C(=O)OC` [N-[5-[4-(aminoiminomethyl)phenyl]-1-oxopentyl]-N-L-α-aspartyl-L-phenylalanine, dimethyl ester] showed an IC50 of 0.4 µM and an inhibition at 10 µM of 100%.

In test [1], `CC(C)[C@H](NC(=O)[C@H](CC(=O)O)NC(=O)CCCCc1ccc(C(=N)N)cc1)C(=O)O` [N-[5-[4-(aminoiminomethyl)phenyl]-1-oxopentyl]-N-L-α-aspartyl-L-valine] yielded an IC50 of 0.13 µM and an inhibition at 10 µM of 100%.

As for `CN(CC(=O)N[C@@H](CC(=O)O)C(=O)N[C@@H](Cc1ccccc1)C(=O)O)C(=O)CCc1ccc(C(=N)N)cc1` [N-[N-[2-[[3-[4-(aminoiminomethyl)phenyl]-1-oxopropyl]methylamino] -1-oxoethyl]-L-α-aspartyl]-L-phenylalanine], in test [1], inhibition was half-maximal at 0.7 µM (IC50) and the inhibition at 10 µM was 100%.

Take `N=C(N)c1ccc2cc(OCC(=O)N[C@@H](CC(=O)O)C(=O)N[C@@H](Cc3ccccc3)C(=O)O)ccc2c1` [N-[N-[2-[[6-(aminoiminomethyl)-2-naphthalenyl]oxy]-1-oxoethyl]-L-α-aspartyl]-L-phenylalanine]: in test [1], it took 1.1 µM to reach half-maximal inhibition (IC50) and the inhibition at 10 µM is 100%.

`N=C(N)c1ccc2cc(CCC(=O)N[C@@H](CC(=O)O)C(=O)N[C@@H](Cc3ccccc3)C(=O)O)ccc2c1` [N-[N-[3-[6-(aminoiminomethyl)-2-naphthalenyl]-1-oxopropyl]-L-α-aspartyl]-L-phenylalanine]: in test [1], the IC50 was 5.5 µM and the inhibition at 10 µM amounted to 100%.

`N=C(N)c1ccc(CCCC(=O)N[C@@H](CC(=O)O)C(=O)N[C@@H](Cc2ccccc2)C(=O)O)cc1` [N-[N-[4-[4-(aminoiminomethyl)phenyl]-1-oxobutyl]-L-α-aspartyl]-L-phenylalanine]: the inhibition at 10 µM in test [1] is 4%.

As for `N=C(N)c1cccc(CCCCC(=O)N[C@@H](CC(=O)O)C(=O)N[C@@H](Cc2ccccc2)C(=O)O)c1` [N-[N-[5-[3-(aminoiminomethyl)phenyl-1-oxopentyl]-L-α-aspartyl]-L-phenylalanine], the inhibition at 10 µM in test [1] came to 25%.

For `N=C(N)c1ccc(CC(=O)CCC(=O)N[C@@H](CC(=O)O)C(=O)N[C@@H](Cc2ccccc2)C(=O)O)cc1` [N-[N-[5-[4-(aminoiminomethyl)phenyl]-1,4-dioxopentyl]-L-α-aspartyl]-L-phenylalanine], in test [1], the midpoint of inhibition, the IC50, lay at 0.18 µM and the inhibition at 10 µM worked out at 100%.

In test [1], `N=C(N)c1ccc(/C=C\CCC(=O)N[C@@H](CC(=O)O)C(=O)N[C@@H](Cc2ccccc2)C(=O)O)cc1` [N-[N-[5-[4-(aminoiminomethyl)phenyl]-1-oxo-4Z-pentenyl]-L-α-aspartyl]-L-phenylalanine] gave an IC50 of 0.6 µM and an inhibition at 10 µM of 100%.

For `CCOC(=O)C[C@H](NC(=O)CCCCc1ccc(C(=N)N)cc1)C(=O)N[C@@H](Cc1ccccc1)C(=O)OCC` [N-[N-[5-[4-(aminoiminomethyl)phenyl]-1-oxopentyl]-L-α-aspartyl]-L-phenylalanine, diethyl ester], in test [2] (.025 mg/kg, IG), the “Ex-vivo collagen induced aggregation, Max % Inhibition” value turned out to be 39%.

In test [1], `CN(C(=O)[C@H](CC(=O)O)NC(=O)CCCCc1ccc(C(=N)N)cc1)[C@@H](Cc1ccccc1)C(=O)O` [N-[N-[5-[4-(aminoiminomethyl)phenyl]-1-oxopentyl]-L-α-aspartyl]-N-methyl-L-phenylalanine] came in with an IC50 of 1.5 µM and an inhibition at 10 µM of 100%.

`N=C(N)c1ccc(CC(O)CCC(=O)N[C@@H](CC(=O)O)C(=O)N[C@@H](Cc2ccccc2)C(=O)O)cc1` (stereo partly drawn) [N-[N-[5-[4-(aminoiminomethyl)phenyl]-4-hydroxy-1-oxopentyl]-L-α-aspartyl]-L-phenylalanine]: in test [1], at 10 µM the inhibition was 15%.

In general, IC50 refers to the point on the concentration scale where inhibition reaches its midpoint. Read a low IC50 as higher potency. As usually defined, the inhibition is the percentage by which the read-out fell short of the control. A low value points to little suppression.
